Where two headings read alike, the source gives them in different places.

The text below walks through data of patent US20250296961A1, “ANTIMICROBIAL PEPTIDES FOR REMINERALIZATION OF TEETH AND PREVENTION OF DENTAL CARIES” (The University of Hong Kong, priority 2021, published 2025).

One assay deals with S. mutans. As to the kind of experiment: Anti-planktonic bacterial ability, MIC and MBC (Example 1). It counts as cell-based, Streptococcus mutans (ATCC 35668). The protocol:
(§1) Streptococcus mutans (ATCC 35668, ATCC, Manassas, USA) were cultured in Horse Blood Medium under anaerobic (85% N2, 10% H2, and 5% CO2) conditions at 37° C. Cells were harvested by centrifugation (5000 rpm, 10 min), washed once with 10 mM sodium phosphate-buffered saline (PBS, pH 7.2), and resuspended in brain-heart infusion broth (BHI, Difco Laboratories, Detroit, USA) at a concentration of 10^6 CFU/mL.
Two-fold serial dilutions (in 10 mM HEPES) of P-113, P-113-DPS, P-113-DA, P-113-SK, and Sp-H5 prepared in 25% BHI medium were pipetted into a 96-well cell culture plate at final concentrations from 0.125-128 μmol/mL [100 μL/well]. Each well was seeded with 10 μL bacterial suspension at a final concentration of 10^6 CFU/mL. Sp-H5 with bacterial cells and 25% BHI medium with and without bacterial cells in 10 mM HEPES buffer (pH 7) were used as the positive, negative, and blank control group, respectively. After a 24-h incubation, absorbance was measured at 595 nm using a microplate reader to assess cell growth. […] The minimal bactericidal concentration (MBC) was defined as the lowest concentration of peptide resulting in no colony formation on agar plates after incubation. 10 μL of cell suspension from each well were plated on horse blood agar plates and incubated at 37° C. for 48 h. All determinations were conducted in triplicate experiments.

The next assay concerns S. mutans biofilms. Format: cell-based. The protocol:
as §1
S. mutans biofilms were cultured on enamel working surfaces in a 96-well plate. Tooth slices (N=32) were autoclave-sterilized prior to anti-biofilm activity testing. 200 μL S. mutans in BHI (10^6 CFU/mL) was added to each well. After a 24-h incubation at 37° C., each tooth slice was washed once with PBS. […] (in 10 mM HEPES). After incubation, tooth slices were washed once with PBS. One tooth slice at random in each group was stained with the LIVE/DEAD BacLight Bacterial Viability Kit (L7012, Thermo Fisher Scientific, Waltham, USA) and incubated in the dark for 30 min. Fluorescence images were obtained using confocal laser scanning microscopy (CLSM, Fluoview 1000, Olympus, USA). A separate tooth slice was used for the counting of colony-forming units (CFU). Tooth slices were placed in 1 mL BHI solution, and adherent biofilms were removed from the enamel surfaces by sonication for 30 sec. Ten-fold serial dilutions of the suspensions were plated in duplicate on horse blood agar. CFU's were counted after 48-h incubation. Three independent biofilm experiments were performed.

Another assay concerns S. gordonii. As to the kind of experiment: Anti-planktonic bacterial ability, MBC (Example 2). Format: cell-based, S. gordonii (ATCC 35105). The procedure: S. mutans (ATCC 35668, ATCC, Manassas, USA), S. gordonii (ATCC 35105, ATCC, Manassas, USA), and S. sanguinis (ATCC 10556, ATCC, Manassas, USA) strains were cultured in brain-heart infusion broth (BHI, Difco Laboratories, Detroit, USA) at 37° C. under anaerobic conditions (85% N2, 10% H2, and 5% CO2). Bacteria were harvested by centrifugation (5000 rpm, 10 min), washed once with sodium phosphate-buffered saline (PBS, 10 mM, pH=7.2), and resuspended in BHI at a concentration of 1×10^6 CFU mL^−1.
Each well was seeded with 10 μL S. mutans suspension, S. gordonii suspension, and S. sanguinis suspension, respectively. […] The bacterial growth was assessed by measuring the absorbance at 595 nm using a microplate reader after a 24-hour incubation. Subsequently, 10 μL of bacterial suspension from each well were plated on horse blood agar plates and incubated at 37° C. for 48 h. The antibacterial activities of AMPs were evaluated.

For the sequence “AKRHHGYKRKFH [Peptide P-113, non-specific AMP, portion of human histatin 5]”, the MBC in the assay with S. mutans is given as >128 μM mL^−1. In the assay on S. mutans (24 h), the MIC was determined as 32 μM mL^−1. Besides, the “S. mutans killed (biofilm)” value turned out to be 79% with S. mutans biofilms (128 μmol/mL, 24 h exposure) and 87% in the assay with S. mutans biofilms (160 μmol/mL). Further, the “CLSM live/dead state of S. mutans biofilm” value with S. mutans biofilms (24 h, concentration not given) is “the majority of S. mutans in BHI and P-113 were alive”. The “MBC, S. gordonii” value in the assay on S. gordonii is given as >128 μM mL^−1.
